Reference: patent US20250002954A1, “Novel Compound, Use Thereof, and Method for Producing Same, and Compound-Containing Composition, Method for Producing 4-Trehalosamine, and Microorganism” (Microbial Chemistry Research Foundation, priority 2021, published 2025)

What was measured:
Type in all cases: cell-based
Bacillus subtilis 168 = assay: Evaluation of Bacillus subtilis protective activity in freeze-dried condition; details: for Numbers of live bacterial cells (relative numbers): Bacillus subtilis freeze-dried with 6% aqueous solution (final concentration 3%), test sample 3 (FD) = 1
Procedure: Using test samples 1 to 5 containing Bacillus subtilis prepared in the following manner, microorganism-protective activity with trehalose or 4-trehalosamine in a freeze-dried condition was evaluated.
(§1) Frozen stock of Bacillus subtilis (Bacillus subtilis 168 (obtained from ATCC)) was inoculated in 10 mL of Luria-Bertani (LB) culture medium (manufactured by Difco) and cultured at 37° C. for 24 hours while shaking it at 220 rpm. After culture, it was centrifuged at 3,000×g for 5 minutes, washed once with 10 mL of water, and then suspended in 10 mL of water, thus obtaining Bacillus subtilis suspension. 50 μL of water was added to and mixed with 50 μL of this Bacillus subtilis suspension, and the mixture was left to stand at 4° C. for 20 hours, preparing control (NF).
(§2) After Bacillus subtilis suspension was prepared in a similar manner to test sample 1, 50 μL of 6% aqueous solution of trehalose was added to and mixed with 50 µL of the Bacillus subtilis suspension, and the mixture was frozen at −80° C. for 10 minutes. It was then freeze-dried for 20 hours with a freeze dryer (FLEXI-DRY, manufactured by FTS systems INC., Warminster) connected to a vacuum pump (P65D, manufactured by PHIL Sato Vac INC.), preparing freeze-dried product (TRH) of Bacillus subtilis with TRH.
Freeze-dried product (4TA) of Bacillus subtilis with 4TA was obtained in a similar manner to the preparation method of test sample 4 except that trehalose was changed to 4-trehalosamine (4TA) in the preparation method of test sample 4.
For test samples 1 and 2, serial suspensions were made by diluting them to 1/10 with water. 100 μL of water was added to each of the freeze-dried products of test samples 3 to 5 and diluted to 1/10 with water to make their serial suspensions. […]
(§3) Wells in which the number of colonies was measurable were selected and the numbers (relative numbers) of live bacterial cells per well on test samples 1, 2, 4, and 5 when the number of live bacterial cells per well on test sample 3 (FD) was “1” were calculated in consideration of the dilution concentrations of those test samples.

[1] = tested on: Mycobacterium smegmatis mc^2 (ATCC 700084); assay: Evaluation of mycobacterium-protective activity in freeze-dried condition; details: for Numbers of live bacterial cells (relative numbers): Mycobacterium smegmatis freeze-dried with 6% aqueous solution (final concentration 3%), test sample 3 (FD) = 1
Procedure: Using test samples 1 to 5 containing mycobacterium prepared in the following manner, microorganism-protective activity with trehalose or 4-trehalosamine in a freeze-dried condition was evaluated.
as §1, with “mycobacterium ([…] Mycobacterium smegmatis mc^2 (American Type Culture Collection (ATCC) 700084))” for “Bacillus subtilis (Bacillus subtilis 168 (obtained from ATCC))”, “Middlebrook 7H9” for “Luria-Bertani (LB)”, “Becton, Dickinson and Company)” for “Difco)”, “72” for “24”, “mycobacterium” for “Bacillus subtilis”
as §2, with “mycobacterium” for “Bacillus subtilis”
Freeze-dried product (4TA) of mycobacterium with 4TA was obtained in a similar manner to the preparation method of test sample 4 except that trehalose was changed to 4-trehalosamine (4TA) in the preparation method of test sample 4.
For test samples 1 and 2, serial suspensions were made by diluting them to 1/10 with water. […]
as §3

[2] = tested on: human ovarian cancer cells OVK18 and human malignant melanoma cells Mewo; assay: LC3-II expression in combination with autophagy inhibitor (bafilomycin or chloroquine); details: 50 mM 4-trehalosamine, 50 μM IMCTA-C14 or 100 mM trehalose 14 hours, then 200 nM BM or 100 μM CQ 4 hours
Procedure: As with the test example 10-1, human ovarian cancer cells OVK18 (obtained from RIKEN BRC) and human malignant melanoma cells Mewo (JCRB0066) were each inoculated on a 12-well microplate at 8×10^4 cells/mL/well, and cultured in DMEM culture medium at 37° C. for 72 hours. After that, a half of the culture fluid in each well was taken and each compound was dissolved so that the final concentration is 50 mM 4-trehalosamine, 50 μM IMCTA-C14, or 100 mM trehalose. After dissolving it sufficiently, the cells were returned to the original well and treated at 37° C. for 14 hours. Untreated cells without addition of the compounds were used as control.
After that, each autophagy inhibitor was added so that the final concentration is 200 nM bafilomycin (BM) or 100 μM chloroquine (CQ), and the cells were cultured at 37° C. for 4 hours. A group with no inhibitor added was cultured in a similar way. After culture, they were turned into samples for western blotting in a similar manner to test example 10-1.
The western blotting was performed in a similar manner to test example 4 except that anti-LC3 antibody (manufactured by Cell Signaling Technology) was used at 1/2,000 dilution as the primary antibody in the method described in test example 4. The results for human ovarian cancer cells OVK18 are shown in FIG. 21A, and the results for human malignant melanoma cells Mewo are shown in FIG. 21B.
Also, the results (graphs) of image analysis on the results of western blotting via Image J (manufactured by National Institutes of Health) are shown in FIGS. 21A and 21B (n=10, mean±S.D.). The vertical axis of the graph indicates the value of the amount of expression (expression amount ratio) of LC3-II for the groups with the different compounds added when the amount of expression of LC3-II in the control (untreated cells) is 1. […]

| SMILES | Numbers of live bacterial cells (relative numbers) (Bacillus subtilis 168) | protective effect on microorganisms, comparison (Bacillus subtilis 168; Bacillus subtilis, freeze-dried) | Numbers of live bacterial cells (relative numbers) [1] | protective effect on microorganisms, comparison ([1]; Mycobacterium smegmatis, freeze-dried) | expression of LC3-II in combination with bafilomycin (BM) or chloroquine (CQ) [2] |
| --- | --- | --- | --- | --- | --- |
| N[C@H]1[C@H](O)[C@@H](O)[C@@H](O[C@H]2O[C@H](CO)[C@@H](O)[C@H](O)[C@H]2O)O[C@@H]1CO [4-trehalosamine] | 100 | stronger than when trehalose was added | 100 | stronger than when trehalose was added | increased expression of LC3-II |
| OC[C@H]1O[C@H](O[C@H]2O[C@H](CO)[C@@H](O)[C@H](O)[C@H]2O)[C@H](O)[C@@H](O)[C@@H]1O [trehalose, reference compound] | 10 | – | 10 | – | increased expression of LC3-II |
